Reference: patent publication US11542316B2, “S-Arrestin peptides and therapeutic uses thereof” (APITOPE INTERNATIONAL NV, priority 2017, dated 2023)
Ends that are not written are not given here.

Tested on: LN cells and splenocytes upon SAg or peptide restimulation
Assay: Ex vivo tolerization experiment, DR3tg mice
Type: in vivo
Conditions: IFN-γ; for reduction in response to HIP-115 and HIP-115NE3 peptides: highest concentrations of probing peptide
Procedure: FIG. 7: Ex vivo tolerisation protocol. Mice are injected subcutaneously in the flank with 0.1 μg/ml, 1 μg/ml and 10 μg/ml peptide on days −15, −13 and −11, followed by 3 injections of 100 μg/ml on days −8, −6 and −4 (escalating dose regime). On day 0, mice are immunized subcutaneously at the base of the tail with SAg/CFA or peptide/CFA. Mice are sacrificed 10 days after immunization to measure proliferation of LN cells and splenocytes upon SAg or peptide restimulation. LN, lymph nodes.
FIG. 8: Ex vivo tolerance induction by HIP-115NE3-KKK apitope. DR3 mice are injected subcutaneously in the flank with 0.1 μg/ml, 1 μg/ml and 10 μg/ml HIP-115NE3-KKK on days −15, −13 and −11, followed by 3 injections of 100 μg/ml on days −8, −6 and −4 (escalating dose regime). On day 0, mice are immunized subcutaneously at the base of the tail with HIP-115/CFA. Mice are sacrificed 10 days after immunization to measure proliferation of LN cells and splenocytes upon SAg or peptide restimulation. Data represent mean±SEM of the concentration or OD values for the PBS-treated mice (black lines) and peptide-treated mice (color lines). Two-way ANOVA was used to measure overall treatment effects on T cell activation and p-values are written in the graphs. Bonferonni post-hoc testing was used and significant differences are indicated in the graphs (* p<0.05; **** p<0.0001). LN, lymph nodes. (A) Tolerisation against SAg in LN. IFN-γ production expressed as IFN-γ concentration (pg/ml). (B) Tolerisation against SAg in spleen. IFN-γ production expressed as IFN-γ concentration (pg/ml). (C) Tolerisation against HIP-115 and HIP-115NE3 peptides in LN. IFN-γ production expressed as OD values. (D) Tolerisation against HIP-115 and HIP-115NE3 peptides in spleen. IFN-γ production expressed as OD values.
FIG. 9: Ex vivo tolerance induction by HIP-11B apitope. DR3 mice are injected subcutaneously in the flank with 0.1 μg/ml, 1 μg/ml and 10 μg/ml HIP-11B on days −15, −13 and −11, followed by 3 injections of 100 μg/ml on days −8, −6 and −4 (escalating dose regime). On day 0, mice are immunized subcutaneously at the base of the tail with HIP-11B/CFA. Mice are sacrificed 10 days after immunization to measure proliferation of LN cells and splenocytes upon SAg or peptide restimulation. Data represent mean±SEM of the concentration values for the PBS-treated mice (black lines) and peptide-treated mice (color lines). IFN-γ production expressed as IFN-γ concentration (pg/ml). Two-way ANOVA was used to measure overall treatment effects on T cell activation and p-values are written in the graphs. Bonferonni post-hoc testing was used and significant differences are indicated in the graphs (* p<0.05; **** p<0.0001). LN, lymph nodes. (A) Tolerisation against SAg in LN. (B) Tolerisation against SAg in spleen. (C) Tolerisation against HIP-11B peptide in LN. (D) Tolerisation against HIP-11B peptide in spleen.
FIG. 10: Ex vivo tolerance induction by HIP-24DG apitope. DR3 mice are injected subcutaneously in the flank with 0.1 μg/ml, 1 μg/ml and 10 μg/ml HIP-24DG on days −15, −13 and −11, followed by 3 injections of 100 μg/ml on days −8, −6 and −4 (escalating dose regime). On day 0, mice are immunized subcutaneously at the base of the tail with HIP-24DG+HIP-24HM/CFA. Mice are sacrificed 10 days after immunization to measure proliferation of LN cells and splenocytes upon SAg or peptide restimulation. Data represent mean±SEM of the OD values for the PBS-treated mice (black lines) and peptide-treated mice (color lines). IFN-γ production expressed as OD values. LN, lymph nodes. Two-way ANOVA was used to measure overall treatment effects on T cell activation and p-values are written in the graphs. Bonferonni post-hoc testing was used and significant differences are indicated in the graphs (* p<0.05; ** p<0.01; *** p<0.001: **** p<0.0001). LN, lymph nodes. (A) Tolerisation against SAg in LN. (B) Tolerisation against HIP-24DG in LN. (C) Tolerisation against HIP-24HM2 peptide in LN. […]

KKKVIFKKISRDKSVTIYLGKKK-NH2 [HIP-115NE3-KKK]
reduction in response to SAg (LN and spleen, highest dose of SAg used for probing, escalating dose regime s.c.): 70%
reduction in response to HIP-115 and HIP-115NE3 peptides (LN): 55%
reduction in response to HIP-115 and HIP-115NE3 peptides (spleen): 65%

LTKTLTLLPLLANNRERR-NH2 [HIP-24DG, LTKTLTLLPLLANNRERR]
tolerization against the peptide itself / peptides of the same region (LN, DR3 mice): some tolerization
tolerization against SAg (LN, DR3 mice, escalating dose regime s.c.): tolerization induced

KKKLTFRRDLYFSRVQVYKKK-NH2 [HIP-17J-KKK]
tolerization against SAg (spleen, DR3 mice, escalating dose regime s.c.): tolerization induced
